Here are results for 2 molecules from US20080146555A1, “Uses of Kinase Inhibitors and Compositions Thereof” (GPC Biotech, Inc, priority 2004, published 2008).

Structures can show the parent of a compound that is named as a salt. Where two headings read alike, the source gives them in different places.

In test [1] the test system is adriamycin resistant cell line (ADR-res). Put plainly: NCI panel, adriamycin resistant cell line, SRB assay. The settings on record: Homo sapiens, 48 h. Type of test: cell-based. In a few lines:
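Cells in RPMI-1640/10% FCS plated at 5,000–40,000 cells/well, preincubated 24 h at 37° C, 5% CO2, then exposed 48 h to compound at 5 doses spanning 4 logs. Viability by sulforhodamine B total-protein staining after cold TCA fixation; absorbance read at 515 nm.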
A general note: In SRB staining, fixed cells bind dye roughly in proportion to their protein.

The next test deals with T1, Lck (Homo sapiens, UniProt P06239).
T1 construct: purchased Upstate 14-442
T1 sequence (P06239 whole entry): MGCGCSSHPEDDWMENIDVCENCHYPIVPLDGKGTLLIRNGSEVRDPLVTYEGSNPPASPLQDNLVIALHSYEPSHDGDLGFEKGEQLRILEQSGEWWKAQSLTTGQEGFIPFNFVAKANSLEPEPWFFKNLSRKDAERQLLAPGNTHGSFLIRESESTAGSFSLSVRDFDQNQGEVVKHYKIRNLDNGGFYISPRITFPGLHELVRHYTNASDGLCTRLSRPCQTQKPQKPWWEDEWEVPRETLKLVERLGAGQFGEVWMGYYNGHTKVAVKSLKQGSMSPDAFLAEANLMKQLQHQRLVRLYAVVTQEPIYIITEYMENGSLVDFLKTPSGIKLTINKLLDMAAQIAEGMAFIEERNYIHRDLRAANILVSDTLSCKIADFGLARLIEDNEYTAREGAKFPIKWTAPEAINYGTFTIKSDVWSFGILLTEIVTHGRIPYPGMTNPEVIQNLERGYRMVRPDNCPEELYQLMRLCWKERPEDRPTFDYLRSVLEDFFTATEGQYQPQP
Kind of test: Lck kinase assay. Type of test: biochemical. On the procedure:
• 1. Assay Buffer: 200 mM Tris-HCl pH 7.5, 0.4 mM EGTA, 0.4 mM sodium orthovanadate. • 2. Enzyme Dilution Buffer (EDB): 20 mM MOPS, pH 7.5, 1 mM EDTA, 0.01% Brij-35, 5% glycerol, 0.1% β-mercaptoethanol, 1 mg/ml BSA. • 3. Lck, active: Dilute to 10-100 ng/μl with EDB. Use 2.5 μl per assay point. • 4. Src Substrate Peptide (Catalog #12-140): Prepare a 2.5 mM stock with sterile, distilled water. Use 2.5 μl per assay point for a final concentration of 250 μM per assay. • 5. Magnesium/ATP Cocktail (Catalog #20-113): 500 μM cold ATP and 75 mM magnesium chloride in 20 mM MOPS, pH 7.2, 25 mM β-glycerophosphate, 5 mM EGTA, 1 mM Na3VO4, 1 mM dithiothreitol. • 6. [γ-^32P]ATP: Stock 1 mCi/100 μl (3000 Ci/mmol, obtained from PerkinElmer, Catalog #BLU002A). Make 10 μl aliquots (100 μCi/vial). Before starting the assay, dilute the Magnesium/ATP Cocktail 1:1 with sterile, distilled water. Then dilute an aliquot of [γ-^32P]ATP to 1 μCi/μl with 90 μl of the diluted Magnesium/ATP Cocktail. […]
• 1. Add 6.25 μl of Assay Buffer per assay. • 2. Add 2.5 μl (25-250 ng) of Lck, active. • 3. Add 2.5 μl Src Substrate peptide (250 μM). • 4. Add 3.75 μl distilled water. • 5. Add 10 μl of the diluted [γ-^32P]ATP solution. • 6. Incubate for 10 minutes at 30° C. • 7. Transfer a 20 μl aliquot onto the center of a 2 cm×2 cm P81 paper. • 8. Wash assay squares five times with 0.75% phosphoric acid for 5 minutes per wash. • 9. Wash assay squares once with acetone for 5 minutes. • 10. Transfer assay squares to a scintillation vial and add 5 ml scintillation cocktail. • 11. Read in scintillation counter. Compare cpm of enzyme samples to cpm of control samples that contain no substrate (background control).

The subject of the next test is cell cycle. Kind of test: Cell cycle arrest. Type of test: cell-based.
The next test addresses panel of Ser/Thr kinases. Kind of test: Kinase panel, Ser/Thr kinases (average). Type of test: biochemical. The settings on record: average over panel; for IC50: read-out: average IC50 among non-CDK Ser/Thr kinases.
A further test has as its system A2780. Kind of test: Calcein AM viability assay, A2780. Type of test: cell-based. The following applies: Homo sapiens. On the procedure: Analogous cell viability assays against other cell lines were conducted as above. […] Protocol for the Calcein AM viability assay.
HCT-116 or IMR90 cells were recovered from sub-confluent plates by trypsinization and 1,000 or 4,000 cells, respectively, were plated in 24-well dishes and incubated overnight at 37° C., 5% CO2. HCT-116 cells were cultured in RPMI-1640, 10% FCS, and IMR90 cells were cultured in Minimum Essential Medium-alpha, 10% FCS. After overnight incubation to allow adherence, the media was aspirated from each well and replaced with media containing a test compound at a concentration from 0 to 250 nM, spanning a total of 7 doses. The plates were returned to the incubator and cultured for an additional 72 hours (3 days). […] After 72-hours incubation with the test compound, the cells were washed twice with 1×PBS, taking special care to remove all residual buffer.
A 5 μM Calcein AM solution was prepared by dissolving a 50 μg aliquot of Calcein (Molecular Probes catalog #C3100) in 50 μl DMSO. After the Calcein had completely dissolved (10 minutes at room temperature), it was diluted into 10 ml PBS. Calcein/PBS (0.5 ml) was added to each well. The plates were incubated for 75 minutes at 37° C. (protected from light) and the fluorescent signal was read on a fluorescent plate reader (excitation 485/20 and emission 530/25).

The next test has as its target Cdk6 (Homo sapiens, UniProt Q00534). Kind of test: Cdk6 inhibition. Type of test: biochemical. An excerpt:
Further inhibition results for subject compounds of the invention against other CDKs and further kinases are shown in Table 5, Table II and described in Example 6.
Table 3, Table 4, Table 5 and Table II show the results obtained for inhibition of a broad range of such kinases for subject compounds of the invention.

Setting [2] is: read-out: LCK Inhibition (IC50).

Cdk6, sequence (Q00534 whole entry): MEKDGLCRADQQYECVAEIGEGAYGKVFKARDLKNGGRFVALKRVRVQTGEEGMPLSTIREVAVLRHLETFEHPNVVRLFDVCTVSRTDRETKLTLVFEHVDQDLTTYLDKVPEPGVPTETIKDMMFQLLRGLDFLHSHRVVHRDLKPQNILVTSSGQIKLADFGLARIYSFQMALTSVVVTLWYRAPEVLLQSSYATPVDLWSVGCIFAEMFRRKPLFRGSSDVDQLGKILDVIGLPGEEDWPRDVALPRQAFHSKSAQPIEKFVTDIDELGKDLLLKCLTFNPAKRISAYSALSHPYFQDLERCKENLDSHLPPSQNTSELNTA
Cdk6, sequence (P30279 whole entry partner): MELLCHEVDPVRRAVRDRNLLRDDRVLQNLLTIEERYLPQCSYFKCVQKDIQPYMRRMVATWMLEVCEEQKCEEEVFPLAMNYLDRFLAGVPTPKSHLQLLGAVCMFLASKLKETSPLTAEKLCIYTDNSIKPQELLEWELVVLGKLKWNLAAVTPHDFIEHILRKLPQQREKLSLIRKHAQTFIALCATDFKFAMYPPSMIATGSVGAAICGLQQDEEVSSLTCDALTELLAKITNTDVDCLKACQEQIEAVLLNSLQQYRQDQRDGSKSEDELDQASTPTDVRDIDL

For `COCCN1CCN(Cc2ccc(-c3n[nH]c4c3C(=O)c3c(NC(=O)NN5CCOCC5)cccc3-4)cc2)CC1` [Compound B16, N-[3-(4-{[4-(2-methoxyethyl)piperazinyl]methyl}phenyl)-4-oxoindeno[2,3-d]pyrazol-5-yl](morpholin-4-ylamino)carboxamide dihydrochloride], the IC50 in test [1] is less than 10000 nM; on Lck (kinase panel, 10 μM ATP, read-out: Lck (Lymphocyte kinase) IC50) it was less than 100 nM; on Lck (setting [2]) it was less than 50 nM; on panel of Ser/Thr kinases, approximately 50 nM; with A2780, less than 10 nM; against Cdk6, less than 50 nM. Also, in the test with cell cycle, the cell cycle arrest entry was “predominantly G1 arrest”.
For `CC(C)N1CCN(C(=O)COc2ccc(-c3n[nH]c4c3C(=O)c3c(NC(=O)NN5CCOCC5)cccc3-4)cc2)CC1` [Compound A37], the IC50 was less than 100000 nM in test [1]; less than 50 nM at Lck (setting [2]); 44 nM at panel of Ser/Thr kinases; less than 10 nM with A2780; less than 100 nM at Cdk6. Moreover, in the test with cell cycle, the cell cycle arrest result is “predominantly G1 arrest”. The “average IC50 among non-CDK Ser/Thr kinases” value with panel of Ser/Thr kinases was “about 29 nM”.
